One assay has as its target T1, Wild-type FLT-3 (Homo sapiens, UniProt P36888).
T1 construct: host or cells: RS411 (RS4;11)
T1 sequence (P36888 27-993): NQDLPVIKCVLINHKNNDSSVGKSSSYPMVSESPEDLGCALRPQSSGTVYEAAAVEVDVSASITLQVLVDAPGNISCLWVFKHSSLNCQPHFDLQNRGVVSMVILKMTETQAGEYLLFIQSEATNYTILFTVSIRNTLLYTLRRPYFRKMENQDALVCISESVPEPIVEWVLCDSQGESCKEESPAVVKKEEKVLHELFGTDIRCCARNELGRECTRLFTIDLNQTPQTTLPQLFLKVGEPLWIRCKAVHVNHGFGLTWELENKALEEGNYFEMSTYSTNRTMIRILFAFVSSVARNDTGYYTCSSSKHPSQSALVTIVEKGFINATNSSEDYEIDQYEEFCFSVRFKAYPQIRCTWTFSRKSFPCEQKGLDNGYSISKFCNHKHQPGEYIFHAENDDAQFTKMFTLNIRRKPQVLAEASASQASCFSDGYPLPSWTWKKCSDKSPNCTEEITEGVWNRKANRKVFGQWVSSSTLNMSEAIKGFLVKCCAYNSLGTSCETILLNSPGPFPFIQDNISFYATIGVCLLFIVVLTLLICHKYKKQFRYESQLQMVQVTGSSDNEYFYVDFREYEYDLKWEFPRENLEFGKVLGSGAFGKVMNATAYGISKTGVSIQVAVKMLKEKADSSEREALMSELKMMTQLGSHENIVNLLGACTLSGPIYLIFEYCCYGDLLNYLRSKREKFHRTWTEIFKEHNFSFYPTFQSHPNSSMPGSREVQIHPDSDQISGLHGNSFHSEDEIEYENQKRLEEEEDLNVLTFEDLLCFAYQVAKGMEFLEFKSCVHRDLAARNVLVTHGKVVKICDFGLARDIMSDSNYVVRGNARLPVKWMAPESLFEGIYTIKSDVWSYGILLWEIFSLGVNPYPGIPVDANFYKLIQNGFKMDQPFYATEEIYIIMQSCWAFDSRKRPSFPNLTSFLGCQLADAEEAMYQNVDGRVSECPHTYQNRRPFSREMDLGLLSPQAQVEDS
Briefly: FLT-3 phosphorylation by immunoprecipitation/Western in RS411 cells. On Wild-type FLT-3 (inhibition of phosphorylation): key: +++: very strong inhibition; ++: inhibition; +/−: weak inhibition; −: no inhibition. Type of assay: cell-based. To be noted: for Wild-type FLT-3 (inhibition of phosphorylation): RS411 cells, IP/Western. Here is the method:
FLT-3 was immunoprecipitated from lysates with a commercially available antibody. Proteins were separated by SDS-polyacrylamide gel electrophoresis, transferred to membranes analyzed by Western blotting for phosphotyrosine and subsequently for total FLT-3 protein as control. […]
(§1) Immunoprecipitation and Western Blot (IP/W) analysis: Cells were lysed in lysis buffer (20 mM Tris, pH 7.5; 137 mM NaCl; 10% glycerol; 1% NP-40; 0.1% SDS; 2 mM EDTA) containing protease and phosphatase inhibitors (50 mM sodium fluoride, 1 mM sodium orthovanadate, 2 mM Pefabloc, […], […], […], 4 mM leupeptin, and 4 mM pepstatin A). Equivalent amounts of protein were separated by SDS-PAGE, then transferred to nitrocellulose membranes. For analysis of FLT3 phosphorylation, equivalent amounts of protein from each sample were immunoprecipitated overnight at 4*C. with an agarose-conjugated anti-FLT3 antibody (Santa Cruz Biotechnology, Santa Cruz, Calif.). Immune complexes were washed (150 mM NaCl, 1.5 mM MgCl2, 50 mM HEPES, pH 7.5, 10% glycerol, 0.1% Triton X-100, and 1 mM EGTA) and following SDS-PAGE, proteins were transferred to nitrocellulose membranes. Membranes were probed with an anti-phosphotyrosine antibody (Upstate, Lake Placid, N.Y. or Transduction Laboratories, Lexington, Ky.) and then stripped with Restore Western Blot Stripping Buffer (Pierce, Rockford, Ill.). Membranes were reprobed with an anti-FLT3 antibody (Santa Cruz Biotechnology). Stat5 antibodies for immunprecipitation and Western blot analysis were from Upstate Biotechnology and Transduction labs respectively.

A further assay addresses T2, Mutant FLT-3 (ITD) (Homo sapiens, UniProt P36888, INS600HVDFREYEYD).
T2 sequence (P36888 27-993 INS600HVDFREYEYD): T1 sequence (P36888 27-993)
As to the kind of experiment: FLT-3 phosphorylation by immunoprecipitation/Western in MV411 cells. On Mutant FLT-3 (inhibition of phosphorylation): key: +++: very strong inhibition; ++: inhibition; +/−: weak inhibition; −: no inhibition. Type of assay: cell-based. The settings on record: for Mutant FLT-3 (inhibition of phosphorylation): MV411 cells, IP/Western. As to the method:
FLT-3 was immunoprecipitated from lysates with a commercially available antibody. Proteins were separated by SDS-polyacrylamide gel electrophoresis, transferred to membranes analyzed by Western blotting for phosphotyrosine and subsequently for total FLT-3 protein as control.
The comparative example is a known protein kinase inhibitor having the following formula: [drawing 18]
as §1

For the compound `CCNCCNC(=O)c1c(C)[nH]c(C=C2C(=O)Nc3ccc(F)cc32)c1C` [Compound 8, 5-(5-Fluoro-2-oxo-1,2-dihydro-indol-3-ylidenemethyl)-2,4-dimethyl-1H-pyrrole-3-carboxylic acid(2-ethylamino-ethyl)-amide], the “Wild-type FLT-3 (inhibition of phosphorylation)” value at Wild-type FLT-3 was “++”.
Take `Cc1[nH]c(C=C2C(=O)Nc3ccc(F)cc32)c(C)c1C(=O)NCCN1CCCC1` [Compound 2, 5-(5-Fluoro-2-oxo-1,2-dihydro-indol-3-ylidenemethyl)-2,4-dimethyl-1H-pyrrole-3-carboxylic acid(2-pyrrolidin-1-yl-ethyl)-amide]: at Mutant FLT-3 (ITD), the “Mutant FLT-3 (inhibition of phosphorylation)” value is given as “++”. The “Wild-type FLT-3 (inhibition of phosphorylation)” value on Wild-type FLT-3 is “++”.
For the compound `Cc1[nH]c(/C=C2\C(=O)Nc3ccccc32)c(C)c1CCC(=O)O` [Comparative, reference compound], the “Mutant FLT-3 (inhibition of phosphorylation)” value at Mutant FLT-3 (ITD) was “−”. Moreover, the “inhibition of mutant FLT-3 phosphorylation” value against Mutant FLT-3 (ITD) (in words) is given as “no inhibition”. Moreover, the “Wild-type FLT-3 (inhibition of phosphorylation)” value at Wild-type FLT-3 is “−”. Also, the “inhibition of wild-type FLT-3 phosphorylation” value at Wild-type FLT-3 (in words) is reported as “no inhibition”.
On to `Cc1[nH]c(/C=C2\C(=O)Nc3ccc(F)cc32)c(C)c1C(=O)N1CCC(N2CCOCC2)CC1` [Compound 9, 3-[3,5-dimethyl-4-(4-morpholin-4-yl-piperidine-1-carbonyl)-1H-pyrrol-2-methylene]-5-fluoro-1,3-dihydro-indol-2-one], for which the “Wild-type FLT-3 (inhibition of phosphorylation)” value at Wild-type FLT-3 is “++”.
On to `Cc1cc(CCC(=O)O)c(C=C2C(=O)Nc3ccccc32)[nH]1` [Compound 10, 3-[5-methyl-2-(2-oxo-1,2-dihydro-indol-3-ylidenemethyl)-1H-pyrrol-3-yl]-propionic acid], for which the “Mutant FLT-3 (inhibition of phosphorylation)” value at Mutant FLT-3 (ITD) is given as “−”. Besides, the “Wild-type FLT-3 (inhibition of phosphorylation)” value at Wild-type FLT-3 is listed as “+/−”.
For `Cc1[nH]c(C=C2C(=O)Nc3ccc(F)cc32)c(C)c1C(=O)NCCN1CCOCC1` [Compound 3, 5-(5-Fluoro-2-oxo-1,2-dihydro-indol-3-ylidenemethyl)-2,4-dimethyl-1H-pyrrole-3-carboxylic acid(2-morpholin-4-yl-ethyl)-amide], the “Wild-type FLT-3 (inhibition of phosphorylation)” value at Wild-type FLT-3 is on record as “+/−”.
Regarding `Cc1[nH]c(C=C2C(=O)Nc3ccc(Cl)cc32)c(C)c1C(=O)NCC(O)CN1CCOCC1` (stereo not drawn) [Compound 7, 5-(5-Chloro-2-oxo-1,2-dihydro-indol-3-ylidenemethyl)-2,4-dimethyl-1H-pyrrole-3-carboxylic acid(2-hydroxy-3-morpholin-4-yl-propyl)-amide], at Wild-type FLT-3, the “Wild-type FLT-3 (inhibition of phosphorylation)” value is “++”.

These data come from US20030130280A1, “Treatment of acute myeloid leukemia with indolinone compounds” (SUGEN, Inc., priority 2001, published 2003).
